This assay addresses T1, Full-length glucokinase (beta cell isoform) (Homo sapiens, UniProt P35557).
T1 construct: Full-length glucokinase (beta cell isoform) was His-tagged at N-terminus; His tag (N); made in house
T1 sequence (P35557 1-465): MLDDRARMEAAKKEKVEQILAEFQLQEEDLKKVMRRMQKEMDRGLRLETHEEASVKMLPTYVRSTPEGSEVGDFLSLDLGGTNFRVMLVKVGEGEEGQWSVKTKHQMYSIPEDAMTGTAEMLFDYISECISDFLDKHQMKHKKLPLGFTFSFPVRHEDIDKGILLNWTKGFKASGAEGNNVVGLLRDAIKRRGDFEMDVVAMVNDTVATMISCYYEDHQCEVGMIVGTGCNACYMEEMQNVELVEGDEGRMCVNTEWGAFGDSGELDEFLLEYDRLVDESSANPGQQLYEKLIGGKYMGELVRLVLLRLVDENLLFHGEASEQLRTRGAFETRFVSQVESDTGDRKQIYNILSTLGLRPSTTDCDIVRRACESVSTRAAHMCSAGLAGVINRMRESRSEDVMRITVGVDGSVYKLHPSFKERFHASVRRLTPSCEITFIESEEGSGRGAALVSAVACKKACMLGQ
Put plainly: Glucokinase biochemical assay (PK/LDH-coupled, NADH depletion at 340 nm): % activation, EC50, % max activation. Conditions: 5 mM glucose; for activation at 10 µM: 10 uM compound, % Activation=(Va/Vo−1)×100, read-out: % Activation at 10 uM; for EC50: GK activation, read-out: EC50; for Emax: fitted maximum activation, read-out: % Max Activation. An outline of the steps: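 Activation expressed as (Va/Vo−1)×100, where initial rates with and without compound come from NADH depletion at 340 nm over 200–900 s. Enzyme is His-tagged human beta-cell GK, full length, run at room temperature in HEPES buffer with 1 mM ATP and 5 mM glucose. DMSO 1%.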

In the case of `Cc1ccc(NC(=O)c2cc(Oc3ccc(C(F)F)cc3)c3cc(C(=O)N(C)C)oc3c2)nc1` [Example 323, 4-[4-(Difluoromethyl)phenoxy]-N^2,N^2-dimethyl-N^6-(5-methylpyridin-2-yl)-1-benzofuran-2,6-dicarboxamide], the activation at 10 µM came to 78%, the EC50 was 3.7 µM and the Emax was found to be 83%.

On to `Cc1ccc(NC(=O)c2cc(OC3CN(C(=O)N(C)C)C3)c3cc(C)oc3c2)nc1` [Example 324, N,N-Dimethyl-3-[(2-methyl-6-{[(5-methylpyridin-2-yl)amino]-carbonyl}-1-benzofuran-4-yl)oxy]azetidine-1-carboxamide], for which the activation at 10 µM stood at 18.2%.

For the compound `Cc1cc2c(OC3CN(S(C)(=O)=O)C3)cc(C(=O)Nc3cnn(C)n3)cc2o1` [Example 325, 2-Methyl-4-{[1-(methylsulfonyl)azetidin-3-yl]oxy}-N-(2-methyl-2H-1,2,3-triazol-4-yl)-1-benzofuran-6-carboxamide], the activation at 10 µM is 137% and the concentration for a half-maximal effect (EC50) was greater than 10 µM.

As for `Cc1ccc(NC(=O)c2cc(OC3CN(S(C)(=O)=O)C3)c3cc(C)oc3c2)nc1` [Example 326, 2-Methyl-N-(5-methylpyridin-2-yl)-4-{[1-(methylsulfonyl)-azetidin-3-yl]oxy}-1-benzofuran-6-carboxamide], the activation at 10 µM was found to be 76.9%, the half-maximal effective concentration (EC50) is 2.1 µM and the Emax stood at 90%.

`Cc1cc2c(OC3CN(S(C)(=O)=O)C3)cc(C(=O)Nc3ccn(C)n3)cc2o1` [Example 327, 2-Methyl-N-(1-methyl-1H-pyrazol-3-yl)-4-{[1-(methylsulfonyl)-azetidin-3-yl]oxy}-1-benzofuran-6-carboxamide]: the activation at 10 µM amounted to 108% and the EC50 was greater than 10 µM.

In the case of `Cc1cc2cc(C(=O)Nc3ccn(C)n3)cc(O[C@@H](C)Cc3ccccc3)c2s1` [Example 328, 2-Methyl-7-(1-methyl-2-phenylethoxy)-N-(1-methyl-1H-pyrazol-3-yl)-1-benzothiophene-5-carboxamide], the activation at 10 µM came out at 41.3% and the 50% effective concentration (EC50) was greater than 10 µM.

With `Cc1ccc(NC(=O)c2cc(Oc3ccc(S(C)(=O)=O)cc3)c3sc(C)cc3c2)nc1` [Example 329, 2-Methyl-N-(5-methylpyridin-2-yl)-7-[4-(methylsulfonyl)-phenoxy]-1-benzothiophene-5-carboxamide], the activation at 10 µM was determined as 86.8%, the EC50 amounted to 1.6 µM and the Emax turned out to be 113%.

On to `Cc1cc2cc(C(=O)Nc3ccn(C)n3)cc(Oc3ccc(S(C)(=O)=O)cc3)c2s1` [Example 330, 2-Methyl-N-(1-methyl-1H-pyrazol-3-yl)-7-[4-(methylsulfonyl)-phenoxy]-1-benzothiophene-5-carboxamide], for which the activation at 10 µM was found to be 125%, the concentration for a half-maximal effect (EC50) was determined as 1.7 µM and the Emax is 162%.

With `Cc1cc2cc(C(=O)Nc3ccn(C)n3)cc(Oc3ccc(C(=O)N(C)C)cc3)c2s1` [Example 331, 7-{4-[(Dimethylamino)carbonyl]phenoxy}-2-methyl-N-(1-methyl-1H-pyrazol-3-yl)-1-benzothiophene-5-carboxamide], the activation at 10 µM stood at 47.4%, the EC50 is 0.32 µM and the Emax was determined as 56%.

With `Cn1ccc(NC(=O)c2cc(Oc3ccc(S(C)(=O)=O)cc3)c3occc3c2)n1` [Example 332, N-(1-Methyl-1H-pyrazol-3-yl)-7-[4-(methylsulfonyl)phenoxy]-1-benzofuran-5-carboxamide], the activation at 10 µM turned out to be 57.5% and the half-maximal effective concentration (EC50) was greater than 10 µM.

Regarding `Cc1ccc(NC(=O)c2cc(Oc3ccc(S(C)(=O)=O)cc3)c3occc3c2)nc1` [Example 333, N-(5-methylpyridin-2-yl)-7-[4-(methylsulfonyl)phenoxy]-1-benzofuran-5-carboxamide], the activation at 10 µM turned out to be 52.8%, the EC50 was 8.6 µM and the Emax was found to be 106%.

As to `CN(C)C(=O)c1ccc(Oc2cc(C(=O)Nc3ccn(C)n3)cc3ccoc23)cc1` [Example 334, 7-{4-[(Dimethylamino)carbonyl]phenoxy}-N-(1-methyl-1H-pyrazol-3-yl)-1-benzofuran-5-carboxamide], the activation at 10 µM came to 35%.

As to `Cc1ccc(NC(=O)c2cc(Oc3ccc(C(=O)N(C)C)cc3)c3occc3c2)nc1` [Example 335, 7-{4-[(Dimethylamino)carbonyl]phenoxy}-N-(5-methylpyridin-2-yl)-1-benzofuran-5-carboxamide], the activation at 10 µM came to 26%.

On to `C[C@@H](Cc1ccccc1)Oc1cc(C(=O)Nc2ccn(C)n2)cc2ccoc12` [Example 336, 7-[(1S)-1-Methyl-2-phenylethoxy]-N-(1-methyl-1H-pyrazol-3-yl)-1-benzofuran-5-carboxamide], for which the activation at 10 µM is 8.4%.

For the compound `Cc1ccc(NC(=O)c2cc(Oc3ccc(S(C)(=O)=O)cc3)c3oc(C)cc3c2)nc1` [Example 337, 2-Methyl-N-(5-methylpyridin-2-yl)-7-[4-(methylsulfonyl)-phenoxy]-1-benzofuran-5-carboxamide], the activation at 10 µM is 42.6%, the EC50 stood at 3 µM and the Emax stood at 89%.

In the case of `Cc1cc2cc(C(=O)Nc3ccn(C)n3)cc(Oc3ccc(S(C)(=O)=O)cc3)c2o1` [Example 338, 2-Methyl-N-(1-methyl-1H-pyrazol-3-yl)-7-[4-(methylsulfonyl)-phenoxy]-1-benzofuran-5-carboxamide], the activation at 10 µM was found to be 84.5%, the concentration for a half-maximal effect (EC50) came out at 4.3 µM and the Emax was 147%.

As for `Cc1ccc(NC(=O)c2cc(Oc3ccc(C(=O)N(C)C)cc3)c3oc(C)cc3c2)nc1` [Example 339, 7-{4-[(Dimethylamino)carbonyl]phenoxy}-2-methyl-N-(5-methylpyridin-2-yl)-1-benzofuran-5-carboxamide], the activation at 10 µM was -0.7%.

Regarding `Cc1cc2cc(C(=O)Nc3ccn(C)n3)cc(O[C@@H](C)Cc3ccccc3)c2o1` [Example 340, 2-Methyl-7-[(1S)-1-methyl-2-phenylethoxy]-N-(1-methyl-1H-pyrazol-3-yl)-1-benzofuran-5-carboxamide], the activation at 10 µM is 41.2% and the concentration giving a half-maximal response (EC50) is greater than 10 µM.

`CN(C)C(=O)c1ccc(Oc2cc(C(=O)Nc3ccn(C)n3)cc3occc23)cc1F` [Example 341, 4-(4-(Dimethylcarbamoyl)-3-fluorophenoxy)-N-(1-methyl-1H-pyrazol-3-yl)benzofuran-6-carboxamide]: the activation at 10 µM worked out at 59%, the EC50 was 1.7 µM and the Emax was determined as 69%.

For the compound `Cc1ccc(NC(=O)c2cc(Oc3ccc(C(=O)N(C)C)c(F)c3)c3ccoc3c2)nc1` [Example 342, 4-(4-(Dimethylcarbamoyl)-3-fluorophenoxy)-N-(5-methylpyridin-2-yl)benzofuran-6-carboxamide], the activation at 10 µM is 15%.

As for `Cn1ccc(NC(=O)c2cc(Oc3ccc(S(C)(=O)=O)cc3)c3ccoc3c2)n1` [Example 343], the activation at 10 µM amounted to 82.5% and the EC50 is greater than 10 µM.

`Cc1ccc(NC(=O)c2cc(OC(C)C)cc3occc23)nc1` [Example 344, 6-Isopropoxy-N-(5-methylpyridin-2-yl)benzofuran-4-carboxamide]: the activation at 10 µM is 89.5%, the 50% effective concentration (EC50) amounted to 1.4 µM and the Emax stood at 106%.

As a reminder, the EC50 is the midpoint of the concentration-response curve.

These data come from patent US8119624B2, “Fused phenyl amido heterocyclic compounds” (Pfizer Inc., priority 2006, dated 2012).
